# PMC8242589, “Cardiac Safety of Kinase Inhibitors – Improving Understanding and Prediction of Liabilities in Drug Discovery Using Human Stem Cell-Derived Models” (Frontiers in Cardiovascular Medicine, 2021)
# pIC50: −log10 of the molar value.
# Columns and labels:
# [1] = test system: hSC-CMs (Cor.4U Cardiomyocytes); experiment: ATP assay (CellTiter-Glo Luminescent Cell Viability Assay); format: cell-based, human; conditions: for viability at 0.2 µM / viability at 2 µM / viability at 20 µM / viability at 200 µM: Homo sapiens, Cardiomyocyte, normalized to time-matched DMSO control
# Outline: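 Human stem-cell-derived Cor.4U cardiomyocytes (25,000–30,000/well), cultured 4 days at 37 °C, switched to serum-free BMCC medium 12 h before dosing. Cellular ATP quantified by CellTiter-Glo luminescence and normalized to time-matched DMSO controls; at least three replicates per concentration.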
# [2] = test system: hSC-CMs (Cor.4U Cardiomyocytes); experiment: CardioExcyte 96 impedance and EFP recording (beating rate, base impedance); format: cell-based, human; conditions: for activity at 0.2 µM / activity at 2 µM / activity at 20 µM / activity at 200 µM: Homo sapiens, Cardiomyocyte, vs baseline before drug (taken as 100%)
# Outline: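 hSC-CM monolayers (Cor.4U), cultured 4 days at 37 °C, 5% CO2, recorded spontaneously beating; impedance sampled at 1 kHz, EFP at 10 kHz. Beating rate taken as reciprocal of inter-spike interval in EFP. Each test concentration expressed as fractional change versus pre-drug baseline (100%).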
# [3] = clinical exposure in patients; ref [26] (NVP-BEZ235), [29], [30] (GDC-0941), [34] (CAL-101); cited from earlier work
# [4] = test system: hSC-CMs (Cor.4U Cardiomyocytes); experiment: Apoptosis assay (CellEvent Caspase-3/7 Green, IncuCyte ZOOM kinetics over 24 h); format: cell-based, human; conditions: for activity at 0.2 µM / activity at 2 µM / activity at 20 µM / activity at 200 µM: Homo sapiens, Cardiomyocyte, normalized to time-matched vehicle control
# Outline: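 Cor.4U cardiomyocytes were cultured 4 days at 5% CO2 and 37 °C, given a 2 h baseline, then treated with compound for 24 h. Caspase-3/7 green nuclear signal was imaged every 2 h, and total green object area per well (μm^2/well) was normalized to the time-matched vehicle control. At least three replicates were run per concentration.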
# PI3K p110β = conditions: ref [23]–[25] (NVP-BEZ235), [27] (LY 294002), [28] (GDC-0941), [32] (TGX-221), [33] (CAL-101), [35] (CZC24832); read-out: Target IC50 p110β; cited from earlier work
smiles,measurement,setting,value
"CC[C@H](Nc1ncnc2[nH]cnc12)c1nc2cccc(F)c2c(=O)n1-c1ccccc1 [CAL-101, Idelalisib]",viability at 0.2 µM,[1]; 2h,87%
same,viability at 0.2 µM,[1]; 24h,98%
same,viability at 2 µM,[1]; 2h,87%
same,viability at 2 µM,[1]; 24h,92%
same,viability at 20 µM,[1]; 2h,92%
same,viability at 20 µM,[1]; 24h,89%
same,viability at 200 µM,[1]; 2h,98%
same,viability at 200 µM,[1]; 24h,79%
same,Decrease of ATP level,"[1]; hSC-CMs, after 24 h of incubation",20–25%
same,activity at 0.2 µM,"[2]; 2h, read-out: BR",102%
same,activity at 0.2 µM,"[2]; 2h, read-out: Base Imp",93%
same,activity at 0.2 µM,"[2]; 24h, read-out: BR",99%
same,activity at 0.2 µM,"[2]; 24h, read-out: Base Imp",94%
same,activity at 2 µM,"[2]; 2h, read-out: BR",96%
same,activity at 2 µM,"[2]; 2h, read-out: Base Imp",93%
same,activity at 2 µM,"[2]; 24h, read-out: BR",94%
same,activity at 2 µM,"[2]; 24h, read-out: Base Imp",99%
same,activity at 20 µM,"[2]; 2h, read-out: BR",89%
same,activity at 20 µM,"[2]; 2h, read-out: Base Imp",96%
same,activity at 20 µM,"[2]; 24h, read-out: BR",80%
same,activity at 20 µM,"[2]; 24h, read-out: Base Imp",89%
same,activity at 200 µM,"[2]; 2h, read-out: BR",5%
same,activity at 200 µM,"[2]; 2h, read-out: Base Imp",70%
same,activity at 200 µM,"[2]; 24h, read-out: BR",39%
same,activity at 200 µM,"[2]; 24h, read-out: Base Imp",52%
same,"Effect on cardiomyocyte function in 3D surface plots (beating rate, base impedance, ATP), in words","[2]; hSC-CMs, 2 and 24 h",pronounced effects
same,Reduction of base impedance,"[2]; hSC-CMs, 2 and 24 h",more than 20%
same,Reduction of beating rate,"[2]; hSC-CMs, 2 and 24 h",more than 20%
same,Cmax free,[3],700 nM
same,activity at 0.2 µM,[4]; 2h,137%
same,activity at 0.2 µM,[4]; 24h,90%
same,activity at 2 µM,[4]; 2h,118%
same,activity at 2 µM,[4]; 24h,83%
same,activity at 20 µM,[4]; 2h,99%
same,activity at 20 µM,[4]; 24h,169%
same,activity at 200 µM,[4]; 2h,83%
same,activity at 200 µM,[4]; 24h,544%
same,"Apoptosis (caspase-3/7 activation), result in words","[4]; hSC-CMs, monitored over 24 h",induced apoptosis in hSC-CMs with a fast onset
same,Time to reach the maximum number of apoptotic cells,"[4]; hSC-CMs, monitored over 24 h",≤ 12 h
same,pIC50,PI3K p110β,7.25
